Reference: US8207172B2 (Bayer Intellectual Property GmbH, priority 2004, dated 2012)

Assays:
[1] = tested on: A431 cells (human epidermoid carcinoma); experiment: In vitro tumor cell proliferation assay (Cell Titer-Glo luminescent cell viability), A431; type: cell-based; settings: A-431, 72 h, 72 hours of drug exposure, ATP luminescence readout, read-out: IC50, anti-proliferative activity (inhibition of cell proliferation)
Outline: (§1)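 A431 or BT474 cells were exposed 72 h at 37°C to serially diluted compounds (final 100 μM down to 64 pM, 0.1% DMSO). Viable cells were read by ATP luminescence (CellTiter-Glo) and IC50 values derived.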

[2] = tested on: BT474 (human breast carcinoma); experiment: In vitro tumor cell proliferation assay (Cell Titer-Glo luminescent cell viability), BT474; type: cell-based; settings: BT-474, 72 h, BT474 cells, 72 hours of drug exposure, ATP luminescence readout, read-out: IC50, anti-proliferative activity (inhibition of cell proliferation)
Outline: as §1

Compound | IC50 [1] [µM] | IC50 [2] [µM]
CC(C)(C)OC(=O)N1CCC(n2cc3c(n2)CCc2c-3sc3ncnc(Nc4ccc(OCc5cccc(F)c5)c(Cl)c4)c23)CC1 [Example 216, tert-butyl 4-[6-({3-chloro-4-[(3-fluorobenzyl)oxy]phenyl}amino)-4,5-dihydro-2H-pyrimido[5′,4′:4,5]thieno[2,3-e]indazol-2-yl]piperidine-1-carboxylate] | ≤ 50 | ≤ 50
CS(=O)(=O)CCNCCn1cc2c(n1)CCc1c-2sc2ncnc(Nc3ccc(F)c(Cl)c3)c12 [Example 13, N-(3-chloro-4-fluorophenyl)-2-(2-{[2-(methylsulfonyl)ethyl]amino}ethyl)-4,5-dihydro-2H-pyrimido[5′,4′:4,5]thieno[2,3-e]indazol-6-amine] | ≤ 5 | ≤ 5
COCCNC[C@@H](O)Cn1cc2c(n1)CCc1c-2sc2ncnc(Nc3ccc(OCc4cccc(F)c4)c(Cl)c3)c12 [Example 146, (2R)-1-[6-({3-chloro-4-[(3-fluorobenzyl)oxy]phenyl}amino)-4,5-dihydro-2H-pyrimido[5′,4′:4,5]thieno[2,3-e]indazol-2-yl]-3-[(2-methoxyethyl)amino]propan-2-ol] | ≤ 50 | ≤ 1
Fc1cccc(COc2ccc(Nc3ncnc4sc5c(c34)CCc3nn(CCN4CCOCC4)cc3-5)cc2Cl)c1 [Example 63, N-{3-chloro-4-[(3-fluorobenzyl)oxy]phenyl}-2-(2-morpholin-4-ylethyl)-4,5-dihydro-2H-pyrimido[5′,4′:4,5]thieno[2,3-e]indazol-6-amine] | ≤ 5 | ≤ 1
CN(C)[C@H]1CCN(CC(=O)N2CCC(Cn3cc4c(n3)CCc3c-4sc4ncnc(Nc5ccc(OCc6cccc(F)c6)c(Cl)c5)c34)CC2)C1 [Example 235, N-{3-chloro-4-[(3-fluorobenzyl)oxy]phenyl}-2-[(1-{[(3S)-3-(dimethylamino)pyrrolidin-1-yl]acetyl}piperidin-4-yl)methyl]-4,5-dihydro-2H-pyrimido[5′,4′:4,5]thieno[2,3-e]indazol-6-amine] | ≤ 5 | ≤ 1
OC(CN1CCOCC1)Cn1cc2c(n1)CCc1c-2sc2ncnc(Nc3ccc(OCc4cccc(F)c4)c(Cl)c3)c12 (centres unmarked) [Example 135, 1-[6-({3-chloro-4-[(3-fluorobenzyl)oxy]phenyl}amino)-4,5-dihydro-2H-pyrimido[5′,4′:4,5]thieno[2,3-e]indazol-2-yl]-3-morpholin-4-ylpropan-2-ol] | ≤ 50 | ≤ 1
COC(=O)[C@@H]1CCCN1CCn1cc2c(n1)CCc1c-2sc2ncnc(Nc3ccc(F)c(Cl)c3)c12 [Example 34, methyl 1-(2-{6-[(3-chloro-4-fluorophenyl)amino]-4,5-dihydro-2H-pyrimido[5′,4′:4,5]thieno[2,3-e]indazol-2-yl}ethyl)-L-prolinate] | ≤ 5 | ≤ 5
OCCn1cc2c(n1)CCc1c-2sc2ncnc(Nc3ccc4c(cnn4Cc4ccccc4)c3)c12 [Example 302, 2-{6-[(1-benzyl-1H-indazol-5-yl)amino]-4,5-dihydro-2H-pyrimido[5′,4′:4,5]thieno[2,3-e]indazol-2-yl}ethanol] | ≤ 5 | ≤ 1
CN(C)C1CCN(C(=O)Cn2ncc3c2CCc2c-3sc3ncnc(Nc4ccc(OCc5cccc(F)c5)c(Cl)c4)c23)C1 (centres unmarked) [Example 215, N-{3-chloro-4-[(3-fluorobenzyl)oxy]phenyl}-3-{2-[3-(dimethylamino)pyrrolidin-1-yl]-2-oxoethyl}-4,5-dihydro-3H-pyrimido[5′,4′:4,5]thieno[2,3-e]indazol-6-amine] | ≤ 5 | ≤ 1
CN(C)C1CCN(C(=O)Cn2ncc3c2CCc2c-3sc3ncnc(Nc4ccc(OCc5cccc(F)c5)c(Cl)c4)c23)C1 (stereo in doubt) [Example 211, N-{3-chloro-4-[(3-fluorobenzyl)oxy]phenyl}-3-{2-[(3R)-3-(dimethylamino)pyrrolidin-1-yl]-2-oxoethyl}-4,5-dihydro-3H-pyrimido[5′,4′:4,5]thieno[2,3-e]indazol-6-amine] | ≤ 5 | ≤ 1
